According to patent US20240209014A1, “NOVEL SPINOSYN PRODRUGS” (Acies Bio d.o.o., priority 2021, published 2024):
Read-outs that look alike come from different tables or passages of the source.

Columns and labels:
[1] = system: honey bees (Apis melifera carnica, Pollman 1879); experiment: Single dose acute oral toxicity test on adult worker honey bees; format: in vivo
Method: Toxicity of the compounds of this invention towards honey bees (Apis melifera carnica, Pollman 1879) was assessed in comparison with commercially available samples of spinosad (LGC (Dr. Ehrenstorfer); Product code: DRE-C16972830) and the naturally produced compound butenyl spinosyn alpha 1. Solutions of spinosyn compounds were prepared in 100 mM ammonium acetate, pH=5, and later diluted in 50% (500 g/L) sucrose solution in water to final concentrations. Two final concentrations were used for each compound, 7.76 μmol/L and 15.53 μmol/L.
Single dose acute oral toxicity tests were conducted on adult worker bees according to previously described standard methods (Medrzycki at el., (2013)). Each compound and condition were tested in two parallels. Briefly, each parallel experiment consisted of 5 cages with 20 honey bees per cage. […] After uptake of the solutions honey bees were supplied with standard 50% sucrose solution and observed at 24 h and 48 h and the number of dead and live bees was estimated.
Ammonium acetate solution with pH 5 was used as the negative control.

[2] = system: larvae of Ostrinia nubilialis (development stage L1); experiment: Insecticide efficacy, corn leaf dip, Henderson-Tilton method; format: in vivo; conditions: for % efficacy (Henderson-Tilton): Ostrinia, foliar
Method: Insecticide activities of the compounds of this invention were assessed in comparison with commercially available samples of spinosad (LGC (Dr. Ehrenstorfer); Product code: DRE-C16972830) and spinetoram (LGC (Dr. Ehrenstorfer); Product code: DRE-C16972770). Solutions of spinosyn compounds were prepared by adding 0.05% Tween 80, lowering pH to 5.95 and sonicating. Two concentrations of each compound were used, 0.1 μg/ml and 0.3 μg/mL, with each condition tested in four parallels.
Freshly collected corn leaves were dipped into the prepared solutions. After dipping leaves were left to dry at room temperature for 1 hour. Each dry leaf was then infested with 4 larvae of Ostrinia nubilialis (development stage L1), and the experimental device was incubated at 21° C.-23° C. for 24 h in order to optimize insect development. At three timings post infestation (1 day, 3 days and 6 days), the insecticide efficacy is evaluated from the number of living larvae using the Henderson-Tilton method. Untreated control was integrated for normalization and validation of larvae health.

Kinetic solubility assay = format: physicochemical; conditions: 25 °C, kinetic from dmso stock, dose conc 200 μM, 25±2° C.
Method: Solubility of the compounds of the invention was assessed using kinetic solubility assay and compared to solubility of butenyl spinosyn. Stock solutions of spinosyn compounds were prepared in DMSO at mM concentration). 10 uL of the stock solutions were added into 490 of in K.S. 5.4 buffer of pH 5.4 (80 mM phosphoric acid, acetic acid, boric acid buffer, adjusted the pH to pH 5.4 with 1 N HCl and 1N NaOH) or K.S. 7.4 buffer with pH of 7.4 (80 mM phosphoric acid, acetic acid, boric acid buffer, adjusted the pH to pH 7.4 with 1 N HCl and 1N NaOH). The solutions were incubated with shaking at room […] temperature (25±2° C.) for 24 hours. 200 uL of each solution were then transferred into a new MultiScreen filter plate (Membrane of polycarbonate) and filtered by millipore vacuum manifold, and the filtrate was collected. The concentrtions of tested compounds in the filtered samples were analyzed by HPLC analysis calibrated by a standard curve generated by injection of 3 standard solutions of the relevant compound with concentrations of 1, 20, 200 μM.

[3] = Stability of J1A, J1B and J7 at different pH values (LC-MS); format: physicochemical
Method: Stability of compounds J1A, J1B and J7 was evaluated at different pH values. Differential stability/conversion to the active ingredient is expected to result in condition-specific activation and thereby to higher specificity towards target pests.
Stock solutions of the compounds were prepared at concentration of 0.1 mol/L. 10 μL of the stock solutions were transferred to 0.75 ml of the buffer solutions with pH values of 4, 5, 9 and 11. The resulting solutions were incubated for 10 minutes and 3 and 24 h. After specified times samples were analyzed using LC-MS. The compounds J1A, J1B, J7 and the active compound butenyl spinosyn were quantified. It is seen that the three compounds are converted to the active form preferably in alkaline conditions.

Question: With `CC/C=C/[C@H]1CCC[C@H](OC2CCC([N+](C)(C)COC(=O)OC(C)C)C(C)O2)[C@@H](C)C(=O)C2=C[C@@H]3[C@@H](C=C[C@@H]4C[C@@H](OC5OC(C)C(OC)C(OC)C5OC)C[C@@H]34)[C@@H]2CC(=O)O1` (stereo partly shown) [Compound J7] as the compound, how does the “% of surviving honey bees” value ([1]; single oral dose 0.078 nmol/bee, 24 h after application) read?
Answer: 96%

Question: And the “% of surviving honey bees” value ([1]; single oral dose 0.078 nmol/bee, 48 h after application)?
Answer: 94%

Question: And the “% of surviving honey bees” value ([1]; single oral dose 0.155 nmol/bee, 24 h after application)?
Answer: 85%

Question: And the “% of surviving honey bees” value ([1]; single oral dose 0.155 nmol/bee, 48 h after application)?
Answer: 63%

Question: And the “insecticidal activity on Ostrinia nubilialis larvae (in words)” value ([2]; 0.1 and 0.3 μg/mL, leaf dip)?
Answer: extremely potent insecticidal activity

Question: What about the % efficacy (Henderson-Tilton) ([2]; 24 h, read-out: % Efficacy, dose 0.1 μg a.i./ml, 1 day post infestation) of the same compound?
Answer: 31%

Question: And the % efficacy (Henderson-Tilton) ([2]; 24 h, read-out: % Efficacy, dose 0.3 μg a.i./ml, 1 day post infestation)?
Answer: 44%

Question: What about the % efficacy (Henderson-Tilton) ([2]; 72 h, read-out: % Efficacy, dose 0.1 μg a.i./ml, 3 days post infestation) of the same compound?
Answer: 73%

Question: And the % efficacy (Henderson-Tilton) ([2]; 72 h, read-out: % Efficacy, dose 0.3 μg a.i./ml, 3 days post infestation)?
Answer: 91%

Question: And the % efficacy (Henderson-Tilton) ([2]; 144 h, read-out: % Efficacy, dose 0.1 μg a.i./ml, 6 days post infestation)?
Answer: 91%

Question: What about the % efficacy (Henderson-Tilton) ([2]; 144 h, read-out: % Efficacy, dose 0.3 μg a.i./ml, 6 days post infestation) of the same compound?
Answer: 100%

Question: What about the solubility kinetic at 24 h (Kinetic solubility assay; pH 5.4, aqueous buffer, K.S. 5.4 buffer, read-out: Kinetic Solubility pH = 5.4) of the same compound?
Answer: 192 µM

Question: What about the solubility kinetic at 24 h (Kinetic solubility assay; pH 7.4, aqueous buffer, K.S. 7.4 buffer, read-out: Kinetic Solubility pH = 7.4) of the same compound?
Answer: 145 µM

Question: And the “BuSPN Area % (active butenyl spinosyn released)” value (“BuSPN Area %” for short) ([3]; buffer pH 4, 0.16 h)?
Answer: 0.0%

Question: What about the “Compound (J1A/J1B/J7) Area % remaining” value ([3]; buffer pH 4, 0.16 h) of the same compound?
Answer: 19.2%

Question: What about the “BuSPN Area %” value ([3]; buffer pH 4, 3 h) of the same compound?
Answer: 0.0%

Question: What about the “Compound (J1A/J1B/J7) Area % remaining” value ([3]; buffer pH 4, 3 h) of the same compound?
Answer: 4.1%

Question: And the “BuSPN Area %” value ([3]; buffer pH 4, 24 h)?
Answer: 0.0%

Question: What about the “Compound (J1A/J1B/J7) Area % remaining” value ([3]; buffer pH 4, 24 h) of the same compound?
Answer: 3.8%

Question: And the “BuSPN Area %” value ([3]; buffer pH 5, 0.16 h)?
Answer: 0.2%

Question: And the “Compound (J1A/J1B/J7) Area % remaining” value ([3]; buffer pH 5, 0.16 h)?
Answer: 99.2%

Question: And the “BuSPN Area %” value ([3]; buffer pH 5, 3 h)?
Answer: 0.3%

Question: And the “Compound (J1A/J1B/J7) Area % remaining” value ([3]; buffer pH 5, 3 h)?
Answer: 99.7%

Question: What about the “BuSPN Area %” value ([3]; buffer pH 5, 24 h) of the same compound?
Answer: 0.5%

Question: And the “Compound (J1A/J1B/J7) Area % remaining” value ([3]; buffer pH 5, 24 h)?
Answer: 99.2%

Question: What about the “BuSPN Area %” value ([3]; buffer pH 9, 0.16 h) of the same compound?
Answer: 44.4%

Question: And the “Compound (J1A/J1B/J7) Area % remaining” value ([3]; buffer pH 9, 0.16 h)?
Answer: 54.2%

Question: And the “BuSPN Area %” value ([3]; buffer pH 9, 3 h)?
Answer: 90.8%

Question: What about the “Compound (J1A/J1B/J7) Area % remaining” value ([3]; buffer pH 9, 3 h) of the same compound?
Answer: 7.6%

Question: And the “BuSPN Area %” value ([3]; buffer pH 9, 24 h)?
Answer: 93.8%

Question: And the “Compound (J1A/J1B/J7) Area % remaining” value ([3]; buffer pH 9, 24 h)?
Answer: 0.6%

Question: And the “BuSPN Area %” value ([3]; buffer pH 11, 0.16 h)?
Answer: 93.1%

Question: What about the “Compound (J1A/J1B/J7) Area % remaining” value ([3]; buffer pH 11, 0.16 h) of the same compound?
Answer: 6.7%

Question: What about the “BuSPN Area %” value ([3]; buffer pH 11, 3 h) of the same compound?
Answer: 99.8%

Question: What about the “Compound (J1A/J1B/J7) Area % remaining” value ([3]; buffer pH 11, 3 h) of the same compound?
Answer: 0.0%

Question: And the “BuSPN Area %” value ([3]; buffer pH 11, 24 h)?
Answer: 99.4%

Question: And the “Compound (J1A/J1B/J7) Area % remaining” value ([3]; buffer pH 11, 24 h)?
Answer: 0.0%

Question: Which “% Efficacy” value ([2]; dose 0.1 μg a.i./ml, 1 day post infestation) does the source give for “spinetoram [Spinoteram, reference compound]” here?
Answer: 27%

Question: And the “% Efficacy” value ([2]; dose 0.1 μg a.i./ml, 3 days post infestation)?
Answer: 60%

Question: And the “% Efficacy” value ([2]; dose 0.1 μg a.i./ml, 6 days post infestation)?
Answer: 85%

Question: And the “% Efficacy” value ([2]; dose 0.3 μg a.i./ml, 1 day post infestation)?
Answer: 31%

Question: What about the “% Efficacy” value ([2]; dose 0.3 μg a.i./ml, 3 days post infestation) of the same compound?
Answer: 86%

Question: What about the “% Efficacy” value ([2]; dose 0.3 μg a.i./ml, 6 days post infestation) of the same compound?
Answer: 97%
